These results are taken from patent publication US20180353460A1, “METHODS OF TREATING UROLOGICAL DISORDERS USING SARMs” (priority 2014, published 2018).

The assay has as its system prostate, seminal vesicles and levator ani muscle. Put plainly: Androgenic and anabolic activity in intact male rats, daily oral gavage. The format is in vivo, rat. Here is the method:
Male Sprague-Dawley rats weighing approximately 200 g were purchased from Harlan Bioproducts for Science (Indianapolis, Ind.). The animals were maintained on a 12 h light/dark cycle with food (7012C LM-485 Mouse/Rat Sterilizable Diet, Harlan Teklad, Madison, Wis.) and water available ad libitum. The anabolic and androgenic activity of compound of Formula VIII in intact animals was tested, as well as a dose response evaluation in acutely orchidectomized (ORX) animals. Regenerative effects of the compound of Formula VIII in chronically (9 days) ORX rats was similarly evaluated.
The test article for this study was weighed and dissolved in 10% DMSO (Fisher) diluted with PEG 300 (Acros Organics, NJ) for preparation of the appropriate dosage concentrations. The animals were housed in groups of 2 to 3 animals per cage. Animals were randomly assigned to one of seven groups consisting of 4 to 5 animals per group. Control groups (intact and ORX) were administered vehicle daily. Compound of Formula VIII was administered via oral gavage at doses of 0.01, 0.03, 0.1, 0.3, 0.75, and 1 mg/day to both intact and ORX groups. Where appropriate, animals were castrated on day one of the study. Treatment with compound of Formula VIII began nine days post ORX and was administered daily via oral gavage for fourteen days.
The animals were sacrificed under anesthesia (ketamine/xyalzine, 87:13 mg/kg) and body weights were recorded. In addition, ventral prostate, seminal vesicles, and levator ani muscle were removed, individually weighed, normalized to body weight, and expressed as a percentage of intact control. Student's T-test was used to compare individual dose groups to the intact control group. Significance was defined a priori as a P-value <0.05. Ventral prostate and seminal vesicle weights were evaluated as a measure of androgenic activity, whereas levator ani muscle weight was evaluated as a measure of anabolic activity. Blood was collected from the abdominal aorta, centrifuged, and sera were frozen at −80° C. prior to determination of serum hormone levels. Serum luteinizing hormone (LH) and follicle stimulating hormone (FSH) concentrations were determined.
Male Sprague-Dawley rats weighing approximately 200 g were purchased from Harlan Bioproducts for Science (Indianapolis, Ind.). The animals were maintained on a 12 h light/dark cycle with food (7012C LM-485 Mouse/Rat Sterilizable Diet, Harlan Teklad, Madison, Wis.) and water available ad libitum. Anabolic and androgenic activity of compound of Formula IX in intact animals was evaluated, and the dose response in acutely orchidectomized (ORX) animals was evaluated as well. Regenerative effects of compound of Formula IX in chronically (9 days) ORX rats were also assessed.
The compound was weighed and dissolved in 10% DMSO (Fisher) diluted with PEG 300 (Acros Organics, NJ) for preparation of the appropriate dosage concentrations. The animals were housed in groups of 2 to 3 animals per cage. Intact and ORX animals were randomly assigned to one of seven groups consisting of 4 to 5 animals per group. Control groups (intact and ORX) were administered vehicle daily. Compound of Formula IX was administered via oral gavage at doses of 0.01, 0.03, 0.1, 0.3, 0.75, and 1 mg/day to both intact and ORX groups.
Castrated animals (on day one of the study) were randomly assigned to dose groups (4-5 animals/group) of 0.01, 0.03, 0.1, 0.3, 0.75, and 1 mg/day, for dose-response evaluation. Dosing began nine days post ORX and was administered daily via oral gavage for fourteen days. The animals were sacrificed under anesthesia (ketamine/xyalzine, 87:13 mg/kg) after a 14-day dosing regimen, and body weights were recorded. In addition, ventral prostate, seminal vesicles, and levator ani muscle were removed, individually weighed, normalized to body weight, and expressed as a percentage of intact control. Student's T-test was used to compare individual dose groups to the intact control group. […]

The structures appear in SMILES notation.

Take `C[C@](O)(COc1ccc(C#N)c(F)c1)C(=O)Nc1ccc(C#N)c(C(F)(F)F)c1` [XIII, (S)—N-(4-cyano-3-(trifluoromethyl)phenyl)-3-(4-cyano-3-fluorophenoxy)-2-hydroxy-2-methylpropanamide]: the “levator ani muscle weight” value is on record as 116%±7% (0.01 mg/day); 134%±8% (0.03 mg/day); 134%±21% (0.1 mg/day); 134%±11% (0.3 mg/day); 142%±10% (0.75 mg/day); 147%±10% (1 mg/day). The prostate weight runs as follows: (0.01 mg/day) 98%±21%; (0.03 mg/day) 99%±8%; (0.1 mg/day) 85%±18%; (0.3 mg/day) 98%±22%; (0.75 mg/day) 126%±17%; (1 mg/day) 126%±17%. Besides, the seminal vesicle weight reads like this: (0.01 mg/day) 115%±12%; (0.03 mg/day) 109%±17%; (0.1 mg/day) 106%±13%; (0.3 mg/day) 121%±11%; (0.75 mg/day) 157%±5%; (1 mg/day) 136%±3%.

`C[C@](O)(COc1ccc(C#N)cc1)C(=O)Nc1ccc(C#N)c(C(F)(F)F)c1` [Compound IX, (S)—N-(4-Cyano-3-(trifluoromethyl)phenyl)-3-(4-cyanophenoxy)-2-hydroxy-2-methylpropanamide]: the “levator ani muscle weight” value is reported as 120%±12% (0.01 mg/day); 116%±7% (0.03 mg/day); 128%±7% (0.1 mg/day); 134%±7% (0.3 mg/day); 125%±9% (0.75 mg/day); 146%±17% (1 mg/day). Moreover, the prostate weight is 111%±21% (0.01 mg/day); 88%±15% (0.03 mg/day); 77%±17% (0.1 mg/day); 71%±16% (0.3 mg/day); 71%±10% (0.75 mg/day); 87%±13% (1 mg/day). The seminal vesicle weight is listed as 94%±9% (0.01 mg/day); 77%±11% (0.03 mg/day); 80%±9% (0.1 mg/day); 73%±12% (0.3 mg/day); 77%±10% (0.75 mg/day); 88%±14% (1 mg/day).

As for `C[C@](O)(COc1ccc(C#N)cc1)C(=O)Nc1ccc(C#N)c(Cl)c1` [VIII, (S)—N-(3-Chloro-4-cyanophenyl)-3-(4-cyanophenoxy)-2-hydroxy-2-methylpropanamide], the “levator ani muscle weight” value was 107%±5% (0.01 mg/day); 103%±7% (0.03 mg/day); 97%±7% (0.1 mg/day); 103%±5% (0.3 mg/day); 118%±7% (0.75 mg/day); 118%±7% (1 mg/day). Besides, the prostate weight runs as follows: (0.01 mg/day) 103%±10%; (0.03 mg/day) 99%±10%; (0.1 mg/day) 58%±10%; (0.3 mg/day) 58%±15%; (0.75 mg/day) 65%±20%; (1 mg/day) 77%±23%.
